Results taken from ChEMBL document CHEMBL1201862, “PubChem BioAssay data set” (2004).
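Step 1: Grow cells in 96-well plates. Step 2: Expose to compound for 48 hours at 5 concentrations. Step 3: Interpolate endpoints linearly; if unreached, use highest concentration. GI50: concentration for 50% inhibition of growth.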 The source made the active and inactive calls. No stated cut-off is given here; in the data, active = GI50 up to about 1.1 µM and inactive = higher.

Experiments:
Assay in all cases: NCI anticancer screen, dose series, 48 h
[1] = tested on: OVCAR-3
[2] = tested on: A549
[3] = tested on: IGROV-1
[4] = tested on: COLO 205
[5] = tested on: SF-539
[6] = tested on: CAKI-1
[7] = tested on: SNB-19
[8] = tested on: HL-60
[9] = tested on: RPMI-8226
[10] = tested on: DMS-273
[11] = tested on: OVCAR-4
[12] = tested on: TK-10
[13] = tested on: SW-620
[14] = tested on: HT-29
[15] = tested on: ACHN
[16] = tested on: UACC-257
[17] = tested on: HCC 2998
[18] = tested on: SF-295
[19] = tested on: SK-OV-3
[20] = tested on: SK-MEL-2
[21] = tested on: SNB-75
[22] = tested on: Malme-3M
[23] = tested on: NCI-H522
[24] = tested on: KM-20L2
[25] = tested on: XF498
[26] = tested on: NCI-H23
[27] = tested on: LXFL 529
[28] = tested on: KM12
[29] = tested on: SN12C
[30] = tested on: MOLT-4
[31] = tested on: RXF 631
[32] = tested on: UACC-62
[33] = tested on: U-251
[34] = tested on: SF-268
[35] = tested on: SK-MEL-28
[36] = tested on: NCI-H226
[37] = tested on: SR
[38] = tested on: HCT-15
[39] = tested on: LOX IMVI
[40] = tested on: M14
[41] = tested on: SNB-78
[42] = tested on: UO-31
[43] = tested on: K562
[44] = tested on: 786-0
[45] = tested on: HOP-92
[46] = tested on: DLD-1
[47] = tested on: HOP-62
[48] = tested on: M19-MEL
[49] = tested on: OVCAR-8
[50] = tested on: NCI-H460
[51] = tested on: OVCAR-5
[52] = tested on: HCT-116
[53] = tested on: DMS-114
[54] = tested on: HOP-18
[55] = tested on: EKVX
[56] = tested on: CCRF-CEM
[57] = tested on: RXF 393
[58] = tested on: A498

Measured: GI50

CC(C)COC(=O)c1ccc(/N=C\c2ccc(/C=N/c3ccc(C(=O)OCC(C)C)cc3)cc2)cc1
> 100 µM: [38]
inactive: [1] > 100 µM | [2] > 100 µM | [3] > 100 µM | [4] > 100 µM | [5] > 100 µM | [6] > 100 µM | [7] > 100 µM | [8] > 100 µM | [9] > 100 µM | [10] > 100 µM | [11] > 100 µM | [12] > 100 µM | [13] > 100 µM | [14] > 100 µM | [15] > 100 µM | [16] > 100 µM | [17] > 100 µM | [18] > 100 µM | [19] > 100 µM | [20] > 100 µM | [21] > 100 µM | [22] > 100 µM | [23] > 100 µM | [24] > 100 µM | [25] > 100 µM | [26] 96.6 µM | [27] > 100 µM | [28] > 100 µM | [29] > 100 µM | [30] > 100 µM | [31] > 100 µM | [32] > 100 µM | [33] > 100 µM | [34] > 100 µM | [35] > 100 µM | [36] > 100 µM | [37] > 100 µM | [39] > 100 µM | [40] > 100 µM | [41] > 100 µM | [42] 23.9 µM | [43] > 100 µM | [44] > 100 µM | [45] > 100 µM | [46] > 100 µM | [47] > 100 µM | [48] > 100 µM | [49] > 100 µM | [50] > 100 µM | [51] > 100 µM

Cc1c(C(=O)/C=C/c2cccc3ccccc23)[n+]([O-])c2ccccc2[n+]1[O-]
inactive: [1] 10.7 µM | [2] 16.4 µM | [3] 12.9 µM | [52] 6.12 µM | [4] 13.9 µM | [53] 4.85 µM | [5] 11.4 µM | [54] 14.4 µM | [6] 7.85 µM | [7] 15.7 µM | [8] 7.41 µM | [9] 12 µM | [10] 11.7 µM | [11] 4.47 µM | [12] 20.3 µM | [13] 10.4 µM | [14] 12.3 µM | [55] 14.1 µM | [15] 15.3 µM | [16] 13.5 µM | [17] 16.8 µM | [18] 16.1 µM | [19] 17.3 µM | [21] 13 µM | [22] 18.6 µM | [23] 5.9 µM | [24] 14.6 µM | [26] 12.8 µM | [27] 8.02 µM | [28] 14 µM | [29] 14.1 µM | [30] 11.5 µM | [31] 18.1 µM | [32] 11.3 µM | [33] 14.8 µM | [34] 14.7 µM | [35] 13 µM | [36] 14 µM | [37] 12.7 µM | [56] 3.2 µM | [39] 7.93 µM | [40] 13.7 µM | [41] 6.84 µM | [57] 10.1 µM | [42] 17.3 µM | [43] 4.72 µM | [44] 12.6 µM | [45] 10.1 µM | [46] 10.6 µM | [47] 15.8 µM | [48] 11.9 µM | [49] 11 µM | [58] 16.9 µM | [50] 15.3 µM | [51] 15.2 µM
12.7 µM: [38]
